These results are taken from ChEMBL document CHEMBL4483862, “Open-source discovery of chemical leads for next-generation chemoprotective antimalarials” (2018).

In this assay the test system is Plasmodium berghei. Put plainly: Luciferase/luciferin-expressing antifolate-resistant parasites were used to infect a culture of HepG2 cells that were pre-incubated with compounds. Infected hepatocytes emit light due to the luciferase reaction. Assay results are presented as the percent inhibition of light emission compared to control. […]. The format is functional. The settings on record: sporozoite; for IC90: read-out: LUCIFERASE INFECTION ASSAY - IC90.

Setting [1] is: read-out: LUCIFERASE INFECTION ASSAY - IC50.

For orientation: IC50 means the concentration at which inhibition is half-maximal. For orientation: IC90 means the concentration needed for an effect of 90%.

On to `COC(=O)c1cccnc1Nc1ccc(NS(=O)(=O)c2ccc(F)c(F)c2)cc1`, for which the 90% effect concentration (IC90) was more than 10 µM. Also, the half-inhibitory concentration (IC50) under setting [1] is more than 10 µM.
For the molecule `CN1CCN(c2ccc(-c3cn4c(-c5ccc6c(ccn6C)c5)cnc4cn3)cn2)CC1`, the 90% effect concentration (IC90) was more than 7.79 µM. In addition, the IC50 (HEPG2TOX_HILL_SLOPE 8.77, HEPG2TOX_R_SQUARED 0.447, PBLUC_HILL_SLOPE 3.78, PBLUC_R_SQUARED 0.492, read-out: LUCIFERASE INFECTION ASSAY - IC50) came out at 4.51 µM.
`NC(=O)c1ccc(-c2cc(-c3cc(F)c(F)c(F)c3)cnc2N)cc1`: the 90% effect concentration (IC90) was more than 9.61 µM. Moreover, the half-maximal inhibitory concentration (IC50) under setting [1] was more than 9.61 µM.
Regarding `N#C/C(=N\Nc1cc(C(F)(F)F)ccc1OCC(F)(F)F)S(=O)(=O)c1ccccc1`, the IC90 stood at 0.397 µM. Where the note is “HEPG2TOX_HILL_SLOPE 2.04, HEPG2TOX_R_SQUARED 0.948, PBLUC_HILL_SLOPE 1.99, PBLUC_R_SQUARED 0.732, read-out: LUCIFERASE INFECTION ASSAY - IC50”, the IC50 was 0.131 µM.
With `O=C(CSc1ccccc1)Nc1nc2ccccn2c1C(=O)NC1CCCCC1`, the IC90 is more than 8.08 µM. Moreover, the IC50 (HEPG2TOX_HILL_SLOPE 2.44, HEPG2TOX_R_SQUARED 0.782, PBLUC_HILL_SLOPE 1.51, PBLUC_R_SQUARED 0.873, read-out: LUCIFERASE INFECTION ASSAY - IC50) is 2.83 µM.
Consider `COc1ccc(-c2cnc3cnc(-c4ccccc4N(C)C)cn23)cc1`, for which the IC90 was 0.409 µM. Moreover, the half-maximal inhibitory concentration (IC50) (HEPG2TOX_HILL_SLOPE 0.622, HEPG2TOX_R_SQUARED 0.863, PBLUC_HILL_SLOPE 8.14, PBLUC_R_SQUARED 0.832, read-out: LUCIFERASE INFECTION ASSAY - IC50) came to 0.312 µM.
Take `Cc1noc(C)c1COc1ccccc1C(=O)N1CCN(S(=O)(=O)c2cccc(C(F)(F)F)c2)CC1`: the IC90 was more than 10 µM. Moreover, under setting [1], the IC50 was more than 10 µM.
For the molecule `CCOc1ccc(S(=O)(=O)Nc2cc3c4c(oc3c3ccccc23)CC(C)(C)CC4=O)cc1`, the IC90 came to 6.15 µM. The half-maximal inhibitory concentration (IC50) (HEPG2TOX_HILL_SLOPE 4.2, HEPG2TOX_R_SQUARED 0.972, PBLUC_HILL_SLOPE 5.12, PBLUC_R_SQUARED 0.622, read-out: LUCIFERASE INFECTION ASSAY - IC50) is 4.01 µM.
Consider `OC(c1ccc(Cl)cc1)c1nnc(Nc2ccc(Oc3ccccc3)cc2)s1` (stereo unspecified), for which the 90% effect concentration (IC90) is more than 10 µM. Moreover, the 50% inhibitory concentration (IC50) (PBLUC_HILL_SLOPE 7.15, PBLUC_R_SQUARED 0.699, read-out: LUCIFERASE INFECTION ASSAY - IC50) is 8.48 µM.
Consider `CN(C)CCNc1nc2sc3c(c2c(=O)n1Cc1ccco1)CCCCC3`, for which the IC90 came out at 8.43 µM. Further, under “PBLUC_HILL_SLOPE 3.33, PBLUC_R_SQUARED 0.165, read-out: LUCIFERASE INFECTION ASSAY - IC50”, the 50% inhibitory concentration (IC50) was 4.36 µM.
Consider `Cc1ccc(C)c(-c2nn(C(C)C(=O)Nc3cc(C)on3)c(=O)c3ccccc23)c1` (stereo unspecified), for which the 90% effect concentration (IC90) was 3.83 µM. Further, the IC50 (HEPG2TOX_HILL_SLOPE 5.97, HEPG2TOX_R_SQUARED 0.339, PBLUC_HILL_SLOPE 3.63, PBLUC_R_SQUARED 0.528, read-out: LUCIFERASE INFECTION ASSAY - IC50) is 2.09 µM.
As for `COc1ccccc1CNC(=O)c1cc(Cl)ccc1OC`, the 90% effect concentration (IC90) is more than 10.8 µM. Further, the concentration for half-maximal inhibition (IC50) under setting [1] was more than 10.8 µM.
Consider `COc1cc2c(cc1OC)C(c1cccs1)N(CC(=O)Nc1ccccc1C(F)(F)F)CC2` (stereo unspecified), for which the 90% effect concentration (IC90) was more than 10 µM. In addition, for the setting “FFLUC_HILL_SLOPE 19.7, FFLUC_R_SQUARED 0.151, HEPG2TOX_HILL_SLOPE 1.77, HEPG2TOX_R_SQUARED 0.955, PBLUC_HILL_SLOPE 2.27, PBLUC_R_SQUARED 0.356, read-out: LUCIFERASE INFECTION ASSAY - IC50”, the half-inhibitory concentration (IC50) is 5.2 µM.
In the case of `COc1ccc(-c2cnc3cnc(-c4ccc(N)nc4)cn23)cc1`, the concentration for an effect of 90% (IC90) is 8 µM. Moreover, under “PBLUC_HILL_SLOPE 1.84, PBLUC_R_SQUARED 0.648, read-out: LUCIFERASE INFECTION ASSAY - IC50”, the half-inhibitory concentration (IC50) was 2.43 µM.
In the case of `O=C(c1ccc([N+](=O)[O-])o1)N1CCc2sccc2C1c1ccccc1` (stereo unspecified), the 90% effect concentration (IC90) was more than 10 µM. In addition, the IC50 (HEPG2TOX_HILL_SLOPE 0.0396, HEPG2TOX_R_SQUARED 0.037, PBLUC_HILL_SLOPE 3.01, PBLUC_R_SQUARED 0.32, read-out: LUCIFERASE INFECTION ASSAY - IC50) was 6.65 µM.
For the molecule `Cn1c(N)c(C(=O)CSc2nnc(-c3ccccc3)c(-c3ccccc3)n2)c(=O)n(C)c1=O`, the 90% effect concentration (IC90) was more than 10 µM. Under “PBLUC_HILL_SLOPE 1.94, PBLUC_R_SQUARED 0.495, read-out: LUCIFERASE INFECTION ASSAY - IC50”, the IC50 amounted to 3.75 µM.
With `C/N=c1\scc(-c2ccccc2Br)n1/N=C/c1ccc[nH]1`, the concentration for an effect of 90% (IC90) is more than 10 µM. Further, the IC50 (PBLUC_HILL_SLOPE 15, PBLUC_R_SQUARED 0.188, read-out: LUCIFERASE INFECTION ASSAY - IC50) worked out at 9.68 µM.
Turning to `Cc1c(C(=O)NCc2ccc(Cl)c(Cl)c2)sc(=O)n1Cc1ccc(S(=O)(=O)N(C)C)cc1`, the IC90 was more than 6.41 µM. The IC50 (PBLUC_HILL_SLOPE 9.17, PBLUC_R_SQUARED 0.333, read-out: LUCIFERASE INFECTION ASSAY - IC50) came out at 5.25 µM.
In the case of `CC(=O)c1cnc2sc(C(=O)OC3CCCCC3)c(C)c2c1`, the concentration for an effect of 90% (IC90) worked out at 3.88 µM. Also, the IC50 (PBLUC_HILL_SLOPE 13.1, PBLUC_R_SQUARED 0.209, read-out: LUCIFERASE INFECTION ASSAY - IC50) stood at 3.28 µM.
For `FC(F)Oc1ccc(-c2cs/c(=N\c3cccnc3)n2CC2CCCO2)cc1` (stereo unspecified), the IC90 was more than 10 µM. Under setting [1], the IC50 was determined as 4.16 µM.
For `Cc1ccc(Sc2ccc(NC(=O)C3CC(=O)N(C4CC4)C3)cc2)c(C)c1` (stereo unspecified), the concentration for an effect of 90% (IC90) is more than 10 µM. Also, the concentration for half-maximal inhibition (IC50) under setting [1] was more than 10 µM.
For `FC(F)(F)c1cccc(-c2ccc3nnc(-c4cccc(Cl)c4)n3c2)c1`, the IC90 is more than 10 µM. The IC50 under setting [1] is more than 10 µM.
On to `CC(C)(C)c1cc(C(=O)Nc2nc(C(N)c3ccccc3Cl)cs2)n(Cc2ccccc2)n1` (stereo unspecified), for which the IC90 came to 6.37 µM. Also, the IC50 (PBLUC_HILL_SLOPE 22.9, PBLUC_R_SQUARED 0.71, read-out: LUCIFERASE INFECTION ASSAY - IC50) came out at 5.79 µM.
As to `CCn1nc(C)c(Sc2nccn2C)c1C`, the concentration for an effect of 90% (IC90) was more than 14 µM. Further, the half-maximal inhibitory concentration (IC50) (HEPG2TOX_HILL_SLOPE 10.5, HEPG2TOX_R_SQUARED 0.481, PBLUC_HILL_SLOPE 1.71, PBLUC_R_SQUARED 0.393, read-out: LUCIFERASE INFECTION ASSAY - IC50) was 4.63 µM.
`O=C(N/N=C/c1cccc(O)c1O)c1ccc(CN2c3cccc4cccc(c34)S2(=O)=O)cc1`: the 90% effect concentration (IC90) was more than 10 µM. Moreover, the IC50 (FFLUC_HILL_SLOPE 14.9, FFLUC_R_SQUARED 0.808, read-out: LUCIFERASE INFECTION ASSAY - IC50) is more than 10 µM.
Turning to `CCC(C)c1ccc(S(=O)(=O)N2CCN(C(C)C(=O)N3c4ccccc4CC3C)CC2)cc1` (stereo unspecified), the 90% effect concentration (IC90) is more than 10 µM. In addition, the half-maximal inhibitory concentration (IC50) under setting [1] is more than 10 µM.
Regarding `Cc1ccc(Sc2ccc(/C=C/c3cc(C(=O)O)c4ccccc4n3)cc2[N+](=O)[O-])cc1`, the IC90 was more than 10 µM. Moreover, the half-maximal inhibitory concentration (IC50) (PBLUC_HILL_SLOPE 1.12, PBLUC_R_SQUARED 0.368, read-out: LUCIFERASE INFECTION ASSAY - IC50) is 8.94 µM.
As to `N#CC(Nc1cc(C(F)(F)F)cc(C(F)(F)F)c1)c1ccccc1` (stereo unspecified), the 90% effect concentration (IC90) is more than 9.59 µM. The IC50 under setting [1] turned out to be 7.17 µM.
As for `Cc1c(Sc2ccccc2[N+](=O)[O-])c2ccccn2c1C(=O)c1ccc(Br)cc1`, the 90% effect concentration (IC90) was more than 10 µM. In addition, for the setting “FFLUC_HILL_SLOPE 12.7, FFLUC_R_SQUARED 0.226, PBLUC_HILL_SLOPE 11.1, PBLUC_R_SQUARED 0.312, read-out: LUCIFERASE INFECTION ASSAY - IC50”, the IC50 turned out to be 9.73 µM.
Take `CC(=O)N1CCN(S(=O)(=O)c2ccc(C(=O)NCCCCCCC(C)C)cc2)CC1`: the concentration for an effect of 90% (IC90) was more than 10 µM. Also, the 50% inhibitory concentration (IC50) under setting [1] is more than 10 µM.
For `CC(=O)OC1CCC2(C)C(CCC3C4CCC(C(C)C(=O)OCC(=O)c5ccccc5)C4(C)CC(=O)C32)C1` (stereo unspecified), the IC90 was 0.271 µM. The IC50 (HEPG2TOX_HILL_SLOPE 12.9, HEPG2TOX_R_SQUARED 0.919, PBLUC_HILL_SLOPE 10.6, PBLUC_R_SQUARED 0.537, read-out: LUCIFERASE INFECTION ASSAY - IC50) was determined as 0.22 µM.
For the molecule `CC(C)CCNC(=O)C(=Cc1ccc(Oc2ccc(C(C)(C)C)cc2)c([N+](=O)[O-])c1)C(=O)NCCC(C)C`, the IC90 was more than 10 µM. Moreover, the concentration for half-maximal inhibition (IC50) (FFLUC_HILL_SLOPE 15.8, FFLUC_R_SQUARED 0.198, HEPG2TOX_HILL_SLOPE 15.2, 3.81, HEPG2TOX_R_SQUARED 0.607, 0.996, PBLUC_HILL_SLOPE 2.43, PBLUC_R_SQUARED 0.694, read-out: LUCIFERASE INFECTION ASSAY - IC50) turned out to be 4.43 µM.
In the case of `NC(=O)c1c(NC(=O)NCc2cccnc2)sc2c1CCC2`, the IC90 was more than 10.4 µM. Besides, the IC50 (HEPG2TOX_HILL_SLOPE 6.58, HEPG2TOX_R_SQUARED 0.0674, read-out: LUCIFERASE INFECTION ASSAY - IC50) is more than 10.4 µM.
On to `O=c1cc(CN2CCCCCC2)nc2sccn12`, for which the concentration for an effect of 90% (IC90) was found to be 1.39 µM. Further, the IC50 under setting [1] amounted to 1.12 µM.
With `O=C1C=CC(=O)N1c1ccccc1Cl`, the IC90 is more than 15.9 µM. Besides, the 50% inhibitory concentration (IC50) under setting [1] is 6.18 µM.
Taken in the same sequence, the figures for `CNC(=O)NC(=O)C(C)N1CCN(CCc2cccs2)CC1` (stereo unspecified) were more than 10 µM and more than 10 µM.
With `N#Cc1nc(=O)n(-c2ccc(OC(F)(F)F)cc2)c(N)c1/N=C/c1ccc(C(F)(F)F)cc1`, the concentration for an effect of 90% (IC90) stood at 4.82 µM. Further, the IC50 (FFLUC_HILL_SLOPE 11.8, FFLUC_R_SQUARED 0.146, HEPG2TOX_HILL_SLOPE 2.94, HEPG2TOX_R_SQUARED 0.795, PBLUC_HILL_SLOPE 2.18, PBLUC_R_SQUARED 0.738, read-out: LUCIFERASE INFECTION ASSAY - IC50) was 1.76 µM.
As to `CCOc1ccccc1NC(=O)CSc1nnc2cc(C)c3ccccc3n12`, the IC90 was more than 10 µM. The IC50 under setting [1] was more than 10 µM.
